Patent US5455241A, “Polycyclic compounds and processes for the preparation thereof” (Ciba-Geigy Corporation, priority 1993, dated 1995)
Read-outs that look alike come from different tables or passages of the source.

Legend:
[1] = Determination of the maximum tolerated dose (MTD); details: mouse, in vivo, 3 female Balb/c mice per dose, within 7 days
Experimental: Example 11: Determination of the maximum tolerated dose (MTD) of N-[0-(tetrahydro-pyran-4-yl) -D-lactoyl]- staurosporin
3 female Balb/c mice per dose are treated i.p. or p.o. with N-[O]-(tetrahydropyran-4-yl)-D-lactoyl]-staurosporin in dimethyl sulfoxide […]/sodium chloride solution (see Example 10 for formulation). The dose is increased until animals succumb within 7 days.

[2] = test system: human bladder tumours T24; experiment: Anti-tumour activity in vivo, s.c. transplanted human bladder tumours T24 in hairless mice; set-up: species or system human tumour in female Balb/c hairless mice; details: 15 days
Experimental: Female Balb/c hairless mice with s.c. transplanted human bladder tumours T24 are used to determine the anti-tumour activity. With the animals under peroral forene narcosis, approximately 25 mg of a solid tumour are placed under the skin on "the animals' left flank on day 0 and the small incised wound is closed by means of suture clips. On day 6 after the transplantation, the mice are divided at random into groups of 6 animals and treatment commences. The treatment is carried out for 15 days with peroral or intraperitoneal administration once daily of a compound of formula I in dimethyl sulfoxide/Tween 80/sodium chloride solution in the various doses. The tumours are measured twice a week with a slide gauge and the volume of the tumours is calculated. In this test, the peroral or intraperitoneal administration of 3 mg/kg daily of a compound of formula I brings about a reduction in the average tumour volume to from 10 to 15% of the tumour volume in the untreated control animals.
Example 10: Anti-tumour activity of N-[0-(tetrahydropyran-4-yl)-D-lactoyl]-staurosporin in vivo:
The substance is formulated as follows: 12.5 mg of active ingredient are dissolved in 0.25 ml of dimethyl sulfoxide and mixed with 50 μof Tween 80.4.7 ml of a 0.9% sodium chloride solution are then added and the whole is mixed thoroughly.
Female Balb/c hairless mice with s.c. transplanted human bladder tumours T24 are used to determine the anti-tumour activity. With the animals under peroral forene narcosis, approximately 25 mg of a solid tumour are placed under the skin on the animals' left flank on day 0 and the small incised wound is closed by means of suture clips. On day 6 after the transplantation, the mice are divided at random into groups of 6 animals and treatment commences. The treatment is carried out for 15 days with the administration once daily of the various doses. The tumours are measured twice a week with a slide gauge and the volume of the tumours is calculated. The results are compiled in the following Table in which "dose" is the daily dose, "admin." is the mode of administration, "exper." is experiment and "T/C %" is the percentage quotient of the values in the treated mice and the untreated control mice.

Stability in solution = assay type: physicochemical

Row | SMILES | MTD at 168 h ([1]; ip, read-out: MTD (i.p.)) | MTD at 168 h ([1]; po, read-out: MTD (p.o.)) | average tumour volume [T/C %] ([2]; 0.19 mg/kg daily i.p., Exper. 2) | average tumour volume [T/C %] ([2]; 0.38 mg/kg daily i.p., Exper. 2) | average tumour volume [T/C %] ([2]; 0.75 mg/kg daily i.p., Exper. 2) | average tumour volume [T/C %] ([2]; 0.78 mg/kg daily p.o., Exper. 2) | average tumour volume [T/C %] ([2]; 1.50 mg/kg daily i.p., Exper. 1) | average tumour volume [T/C %] ([2]; 1.50 mg/kg daily i.p., Exper. 2) | average tumour volume [T/C %] ([2]; 1.56 mg/kg daily p.o., Exper. 2) | average tumour volume [T/C %] ([2]; 3.00 mg/kg daily i.p., Exper. 1) | average tumour volume [T/C %] ([2]; 3.00 mg/kg daily i.p., Exper. 2) | average tumour volume [T/C %] ([2]; 3.13 mg/kg daily p.o., Exper. 1) | average tumour volume [T/C %] ([2]; 3.13 mg/kg daily p.o., Exper. 2) | average tumour volume [T/C %] ([2]; 6.25 mg/kg daily p.o., Exper. 1) | average tumour volume [T/C %] ([2]; 6.25 mg/kg daily p.o., Exper. 2) | stability in solution (Stability in solution)
1 | CO[C@@H]1[C@H](N(C)C(=O)[C@@H](C)OC2CCOCC2)C[C@H]2O[C@]1(C)n1c3ccccc3c3c4c(c5c6ccccc6n2c5c31)C(=O)NC4 [N-[O-(tetrahydropyran-4-yl)-D-lactoyl]-staurosporin] | 31.2 mg/kg | 62.5 mg/kg | 74% | 62% | 32% | 58% | 14% | 19% | 31% | 9% | 11% | 17% | 14% | 15% | 12% | –
2 | CO[C@@H]1[C@H](N(C)C(=O)COC2CCOCC2)C[C@H]2O[C@]1(C)n1c3ccccc3c3c4c(c5c6ccccc6n2c5c31)C(=O)NC4O (stereo partly shown) [Example 7, N-[2-(tetrahydropyran-4-yl-oxy)-acetyl]-7-hydroxy-staurospo] | – | – | – | – | – | – | – | – | – | – | – | – | – | – | – | unstable in solution
